One assay deals with T1, androgen receptor (Rattus norvegicus, UniProt P15207).
T1 construct: 5 pmol androgen receptor LBD (Panvera); purchased Panvera
T1 sequence (P15207 651-882 limits assumed): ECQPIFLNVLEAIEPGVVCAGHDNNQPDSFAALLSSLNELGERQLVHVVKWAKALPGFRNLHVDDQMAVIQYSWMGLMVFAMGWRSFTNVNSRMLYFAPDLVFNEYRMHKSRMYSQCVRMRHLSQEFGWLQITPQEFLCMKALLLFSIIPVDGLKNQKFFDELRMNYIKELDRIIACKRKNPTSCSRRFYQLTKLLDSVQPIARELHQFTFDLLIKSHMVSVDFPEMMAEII
Put plainly: Androgen Receptor Filtration Binding Assay ([3H] R1881 tracer). The conditions noted are these: @ 10 μM test compound; Androgen Receptor Binding Results. As for the experimental part:
In Vitro Assay—Androgen Receptor Filtration Binding Assay
The assay was run on a 96 well plate with each well filled with total reaction volume 150 μL, of a solution containing 5 pmol androgen receptor LBD (Panvera) or 30 μL of freshly prepared rat cytosol, 0.5 nM [^3H] R1881 tracer (NEN), 1.5 μL (10 μM) test compound or vehicle (diluted in 30% DMSO, final concentration of DMSO 0.75%) and […] of TED buffer. (TED buffer contains 10 mM Tris.HCl pH 7.4, 1 mM sodium molybdate (60 mg/250 mL), 1.5 mM EDTA, 1 mM DTT and 10% (v/v) glycerol.)
On day one, the solution containing receptor, tracer and TED buffer was distributed onto a 96 well plate. Diluted test compound or control vehicle was then added to individual wells and the plate incubated at 4° C. overnight.
On day two, to each well was then added 20 μL human γ-globulin (ICN 823102), prepared at 25 mg/ml in TE pH 8.0, and 55 μL 40% polyethylene glycol 8000 (J T Baker U222-08), prepared in TE pH 8.0. The plate was incubated at 4° C. for 60 minutes. During incubation, the harvester was rinsed with 10% PEG 8000, prepared in TE pH 8.0 and the GF/C Unifilter-96 prewet with 10% PEG. The binding reaction was filtered, the retentate was washed three times with 10% PEG and dried under vacuum for about four minutes, then dried at 50° C. for 5 min and then bottom sealed. 25 μL of Microscint-20 (Packard) was added to the filter wells and top sealed. The plate wells were then counted on a TopCount (Packard).
Selected compounds of the present invention were tested for binding to the androgen receptor according to the procedure described above with results as listed in Table 2. Negative number(s) indicate that there is no antagonist activity for the test compound. The compound may however have agonist activity, which was not tested for.
Broadly, the inhibition is the relative decrease from the control value, in per cent. Turning to `N#Cc1ccc(NC(=O)C2CSC(c3ccc(F)cc3)=N2)cc1C(F)(F)F` (stereo not drawn) [Cmpd #1, 2-(4-fluoro-phenyl)-4,5-dihydro-thiazole-4-carboxylic Acid (3-trifluoromethyl-4-cyano-phenyl)-amide], the inhibition at 10 µM worked out at 50%.

Still in this assay, the particulars now being: Androgen Receptor Binding Results.
Usually IC50 stands for the concentration that gives 50% inhibition. Read a high IC50 as a need for much substance. The compound `CC1(C(=O)Nc2ccc(Cl)c(C(F)(F)F)c2)CSC(c2ccc(F)cc2)=N1` (stereo not drawn) [compound 12] returned an IC50 above 10 µM.

`CC1(C(=O)Nc2ccc([N+](=O)[O-])c(C(F)(F)F)c2)CSC(c2ccc(F)cc2)=N1` (stereo not drawn) [compound 13] gave an IC50 above 10 µM. As to `O=C(Nc1ccc(Cl)c(C(F)(F)F)c1)C1CSC(c2ccc(Cl)cc2)=N1` (stereo not drawn) [Cmpd #11, 2-(4-chloro-phenyl)-4,5-dihydro-thiazole-4-carboxylic acid (4-chloro-3-trifluoromethyl-phenyl)-amide], the IC50 came out at 3.5 µM.

Another assay addresses T1, androgen receptor. Described as above. Particulars: @ 1 μM test compound; negative values indicate no antagonist activity; cmpd 4: two separate synthesis batches; cmpds 5 and 7: average of 2.
As for `CC1(C(=O)Nc2ccc(C#N)c(C(F)(F)F)c2)CSC(c2ccc(F)cc2)=N1` (stereo not drawn) [Cmpd #33, 2-(4-fluoro-phenyl)-4-methyl-4,5-dihydro-thiazole-4-carboxylic Acid (4cyano-3-trifluoromethyl-phenyl)-amide], the inhibition at 1 µM is 27%. On the same count and under the same terms, as for `O=C(Nc1cccc(C(F)(F)F)c1F)C1CSC(c2cccc(Cl)c2)=N1` (stereo not drawn) [Cmpd #32, 2-(3-chloro-phenyl)-4,5-dihydro-thiazole4-carboxylic Acid (2-fluoro-3-trifluoromethyl-phenyl)-amide], the figure is 8.5%; as for `CC1(C)SC(c2ccc(F)cc2)=NC1C(=O)Nc1ccc(C#N)c(C(F)(F)F)c1` (stereo not drawn) [Cmpd #19, 2-(4-fluoro-phenyl)-5,5-dimethyl-4,5-dihydro-thiazole-4-carboxylic Acid (4-cyano-3-trifluoromethyl-phenyl)-amide], -1%. `O=C(Nc1ccc(F)c(C(F)(F)F)c1)C1CSC(c2ccc(F)cc2)=N1` (stereo not drawn) [Cmpd #7, 2-(4-fluoro-phenyl)-4,5-dihydro-thiazole-4-carboxylic Acid (4-fluoro-3-trifluoromethyl-phenyl)-amide]: the inhibition at 1 µM is -24.2%. Consider `O=C(Nc1ccc(F)c(C(F)(F)F)c1)C1CSC(c2cccc(F)c2)=N1` (stereo not drawn) [Cmpd #18, 2-(3-fluoro-phenyl)-4,5-dihydro-thiazole-4-carboxylic Acid (4-fluoro-3-trifluoromethyl-phenyl)-amide], for which the inhibition at 1 µM is -19%. Regarding `O=C(Nc1ccc(Cl)cc1)C1CSC(c2ccc(Cl)cc2)=N1` (stereo not drawn) [Cmpd #16, 2-(4-chloro-phenyl)-4,5-dihydro-thiazole-4-carboxylic Acid (4-chloro-phenyl)-amide], the inhibition at 1 µM was found to be 12%. `O=C(Nc1ccc(Cl)c(C(F)(F)F)c1)C1CSC(c2cccc(Cl)c2)=N1` (stereo not drawn) [Cmpd #26, 2-(3-chloro-phenyl)-4,5-dihydro-thiazole-4-carboxylic Acid (4-chloro-3-trifluoromethyl-phenyl)-amide]: the inhibition at 1 µM was 15%.

As to `N#Cc1ccc(NC(=O)C2CSC(c3cccc(Cl)c3)=N2)cc1C(F)(F)F` (stereo not drawn) [Cmpd #27, 2-(3-chloro-phenyl)-4,5-dihydro-thiazole-4-carboxylic Acid (4-cyano-3-trifluoromethyl-phenyl)-amide], the inhibition at 1 µM was found to be 34%. The same measure, in the same setting: the value for `CC1(C(=O)Nc2ccc(Cl)c(C(F)(F)F)c2)CSC(c2ccc(F)cc2)=N1` (stereo not drawn) [compound 12] was 52%; that for `O=C(Nc1ccc([N+](=O)[O-])c(C(F)(F)F)c1)C1CSC(c2ccc(Cl)cc2)=N1` (stereo not drawn) [Cmpd #10, 2-(4-chloro-phenyl)-4,5-dihydro-thiazole-4-carboxylic acid (4-nitro-3-trifluoromethyl-phenyl)-amide] was 60.5%; that for `O=C(Nc1ccc(S(=O)(=O)C(F)(F)F)cc1)C1CSC(c2ccc(F)cc2)=N1` (stereo not drawn) [Cmpd #28, 2-(4-fluoro-phenyl)-4,5-dihydro-thiazole-4-carboxylic Acid (4-trifluoromethanesulfonyl-phenyl)-amide] was -6.3%. For the compound `N#Cc1ccc(NC(=O)C2CSC(c3ccc(F)cc3)=N2)cc1` (stereo not drawn) [Cmpd #2, 2-(4-fluoro-phenyl)-4,5-dihydro-thiazole-4-carboxylic Acid (4-cyano-phenyl)-amide], the inhibition at 1 µM was -26%. Consider `N#Cc1ccc(NC(=O)C2CSC(c3ccc(F)cc3)=N2)cc1C(F)(F)F` (stereo not drawn) [Cmpd #1, 2-(4-fluoro-phenyl)-4,5-dihydro-thiazole-4-carboxylic Acid (3-trifluoromethyl-4-cyano-phenyl)-amide], for which the inhibition at 1 µM turned out to be 28.5%.

As for `O=C(Nc1ccc(F)c(C(F)(F)F)c1)C1CSC(c2ccc(Cl)cc2)=N1` (stereo not drawn) [Cmpd #14, 2-(4-chloro-phenyl)-4,5-dihydro-thiazole-4-carboxylic acid (4-fluoro-3-trifluoromethyl-phenyl)-amide], the inhibition at 1 µM was 1.5%. On to `O=C(Nc1cccc(C(F)(F)F)c1F)C1CSC(c2ccc(Cl)cc2)=N1` (stereo not drawn) [Cmpd #24, 2-(4-chloro-phenyl)-4,5-dihydro-thiazole-4-carboxylic Acid (2-fluoro-3-trifluoromethyl-phenyl)-amide], for which the inhibition at 1 µM turned out to be 0.74%.

In the case of `CC1(C)SC(c2ccc(Cl)cc2)=NC1C(=O)Nc1cc(F)c(C#N)cc1F` (stereo not drawn) [Cmpd #23, 2-(4-chloro-phenyl)-5,5-dimethyl-4,5-dihydro-thiazole-4-carboxylic Acid (4-cyano-2,5-difluoro-phenyl)-amide], the inhibition at 1 µM was -5%. The same measure, in the same setting: as for `O=C(Nc1ccc(Cl)c(C(F)(F)F)c1)C1CSC(c2ccc(F)cc2)=N1` (stereo not drawn) [compound 5, 2-(4-fluoro-phenyl)-4,5-dihydro-thiazole-4-carboxylic Acid (4-chloro-3-trifluoromethyl-phenyl)-amide], the figure is 12.3%; as for `CC1(C)SC(c2ccc(F)cc2)=NC1C(=O)Nc1ccc(Cl)c(C(F)(F)F)c1` (stereo not drawn) [Cmpd #21, 2-(4-fluoro-phenyl)-5,5-dimethyl-4,5-dihydro-thiazole-4-carboxylic Acid (4-chloro-3-trifluoromethyl-phenyl)-amide], 29%. In the case of `CC1(C)SC(c2ccc(F)cc2)=NC1C(=O)Nc1ccc([N+](=O)[O-])c(C(F)(F)F)c1` (stereo not drawn) [Cmpd #20, 2-(4-fluoro-phenyl)-5,5-dimethyl-4,5-dihydro-thiazole-4-carboxylic Acid (4-nitro-3-trifluoromethyl-phenyl)-amide], the inhibition at 1 µM amounted to 29%. As for `CC1(C(=O)Nc2ccc([N+](=O)[O-])c(C(F)(F)F)c2)CSC(c2ccc(F)cc2)=N1` (stereo not drawn) [compound 13], the inhibition at 1 µM was 29%. On the same count and under the same terms, the value for `O=C(Nc1ccc([N+](=O)[O-])c(C(F)(F)F)c1)C1CSC(c2cccc(Cl)c2)=N1` (stereo not drawn) [Cmpd #30, 2-(3-chloro-phenyl)-4,5-dihydro-thiazole-4-carboxylic Acid (4-nitro-3-trifluoromethyl-phenyl)-amide] was 7%; that for `O=C(Nc1ccc(Cl)c(C(F)(F)F)c1)C1CSC(c2cccc(F)c2)=N1` (stereo not drawn) [Cmpd #17, 2-(3-fluoro-phenyl)-4,5-dihydro-thiazole4-carboxylic Acid (4-chloro-3-trifluoromethyl-phenyl)-amide] was -34%; that for `CC1(C)SC(c2ccc(Cl)cc2)=NC1C(=O)Nc1ccc(Cl)c(C(F)(F)F)c1` (stereo not drawn) [Cmpd #22, 2-(4-chloro-phenyl)-5,5-dimethyl-4,5-dihydro-thiazole-4-carboxylic Acid (4-chloro-3-trifluoromethyl-phenyl)-amide] was 0%. With `O=C(Nc1ccc(S(=O)(=O)C(F)(F)F)cc1)C1CSC(c2ccc(Cl)cc2)=N1` (stereo not drawn) [Cmpd #29, 2-(4-chloro-phenyl)-4,5-dihydro-thiazole-4-carboxylic Acid (4-trifluoromethanesulfonyl-phenyl)-amide], the inhibition at 1 µM came to 25%.

As to `O=C(Nc1ccc(S(=O)(=O)C(F)(F)F)cc1)C1CSC(c2cccc(Cl)c2)=N1` (stereo not drawn) [Cmpd #31, 2-(3-chloro-phenyl)-4,5-dihydro-thiazole-4-carboxylic Acid (4-trifluoromethanesulfonyl-phenyl)-amide], the inhibition at 1 µM was 10%. In the case of `N#Cc1ccc(NC(=O)C2CSC(c3cccc(F)c3)=N2)cc1C(F)(F)F` (stereo not drawn) [Cmpd #3, 2-(3-fluoro-phenyl)-4,5-dihydro-thiazole-4-carboxylic Acid (4-cyano-3-trifluoromethyl-phenyl)-amide], the inhibition at 1 µM was found to be 8.1%.

As for `O=C(Nc1ccc(Cl)c(C(F)(F)F)c1)C1CSC(c2ccc(Cl)cc2)=N1` (stereo not drawn) [Cmpd #11, 2-(4-chloro-phenyl)-4,5-dihydro-thiazole-4-carboxylic acid (4-chloro-3-trifluoromethyl-phenyl)-amide], the inhibition at 1 µM is 30.5%. As for `N#Cc1ccc(NC(=O)C2CSC(c3ccc(Cl)cc3)=N2)cc1C(F)(F)F` (stereo not drawn) [Cmpd #9, 2-(4-chloro-phenyl)-4,5-dihydro-thiazole-4-carboxylic acid (4-cyano-3-trifluoromethyl-phenyl)-amide], the inhibition at 1 µM worked out at 41.5%.

As to `O=C(Nc1cccc(C(F)(F)F)c1F)C1CSC(c2ccc(F)cc2)=N1` (stereo not drawn) [Cmpd #25, 2-(4-fluoro-phenyl)-4,5-dihydro-thiazole-4-carboxylic Acid (2-fluoro-3-trifluoromethyl-phenyl)-amide], the inhibition at 1 µM was -8%.

These data come from US20050014952A1, “Novel thiazoline derivatives as selective androgen receptor modulators (SARMS)” (priority 2003, published 2005).
